Data from ChEMBL document CHEMBL4725331, “An investigative study of antitumor properties of a novel thiazolo[4,5-d]pyrimidine small molecule revealing superior antitumor activity with CDK1 selectivity and potent pro-apoptotic properties” (Bioorg Med Chem, 2020).

Legend:
HOP-92 = assay: Antiproliferative activity against human HOP-92 cells assessed as inhibition of cell growth at 10 uM measured after 48 hrs by SRB assay relative to control; assay type: functional
NCI-H460 = assay: Antiproliferative activity against human NCI-H460 cells assessed as inhibition of cell growth at 10 uM measured after 48 hrs by SRB assay relative to control; assay type: functional
HCC 2998 = assay: Antiproliferative activity against human HCC 2998 cells assessed as inhibition of cell growth at 10 uM measured after 48 hrs by SRB assay relative to control; assay type: functional
HCT-15 = assay: Antiproliferative activity against human HCT-15 cells assessed as inhibition of cell growth at 10 uM measured after 48 hrs by SRB assay relative to control; assay type: functional
UACC-257 = assay: Antiproliferative activity against human UACC-257 cells assessed as inhibition of cell growth at 10 uM measured after 48 hrs by SRB assay relative to control; assay type: functional
OVCAR-8 [1] = assay: Antiproliferative activity against human OVCAR-8 cells assessed as inhibition of cell growth at 10 uM measured after 48 hrs by SRB assay relative to control; assay type: functional
NCI/ADR-RES = assay: Antiproliferative activity against human NCI/ADR-RES cells assessed as inhibition of cell growth at 10 uM measured after 48 hrs by SRB assay relative to control; assay type: functional
SK-OV-3 [2] = assay: Antiproliferative activity against human SK-OV-3 cells assessed as inhibition of cell growth at 10 uM measured after 48 hrs by SRB assay relative to control; assay type: functional
SN12C = assay: Antiproliferative activity against human SN12C cells assessed as inhibition of cell growth at 10 uM measured after 48 hrs by SRB assay relative to control; assay type: functional
T47D = assay: Antiproliferative activity against human T47D cells assessed as inhibition of cell growth at 10 uM measured after 48 hrs by SRB assay relative to control; assay type: functional
CCRF-CEM = assay: Antiproliferative activity against human CCRF-CEM cells assessed as inhibition of cell growth measured after 48 hrs by SRB assay; assay type: functional
SR = assay: Antiproliferative activity against human SR cells assessed as inhibition of cell growth measured after 48 hrs by SRB assay; assay type: functional
EKVX = assay: Antiproliferative activity against human EKVX cells assessed as inhibition of cell growth measured after 48 hrs by SRB assay; assay type: functional
HCT-116 [3] = assay: Antiproliferative activity against human HCT-116 cells assessed as inhibition of cell growth measured after 48 hrs by SRB assay; assay type: functional
HT-29 = assay: Antiproliferative activity against human HT-29 cells assessed as inhibition of cell growth measured after 48 hrs by SRB assay; assay type: functional
SW-620 = assay: Antiproliferative activity against human SW-620 cells assessed as inhibition of cell growth measured after 48 hrs by SRB assay; assay type: functional
SF-295 = assay: Antiproliferative activity against human SF-295 cells assessed as inhibition of cell growth measured after 48 hrs by SRB assay; assay type: functional
SF-268 = assay: Antiproliferative activity against human SF-268 cells assessed as inhibition of cell growth measured after 48 hrs by SRB assay; assay type: functional
UACC-62 = assay: Antiproliferative activity against human UACC-62 cells assessed as inhibition of cell growth measured after 48 hrs by SRB assay; assay type: functional
IGROV-1 = assay: Antiproliferative activity against human IGROV-1 cells assessed as inhibition of cell growth measured after 48 hrs by SRB assay; assay type: functional
OVCAR-8 [4] = assay: Antiproliferative activity against human OVCAR-8 cells assessed as inhibition of cell growth measured after 48 hrs by SRB assay; assay type: functional
SK-OV-3 [5] = assay: Antiproliferative activity against human SK-OV-3 cells assessed as inhibition of cell growth measured after 48 hrs by SRB assay; assay type: functional
A498 = assay: Antiproliferative activity against human A498 cells assessed as inhibition of cell growth measured after 48 hrs by SRB assay; assay type: functional
ACHN = assay: Antiproliferative activity against human ACHN cells assessed as inhibition of cell growth measured after 48 hrs by SRB assay; assay type: functional
CAKI-1 = assay: Antiproliferative activity against human CAKI-1 cells assessed as inhibition of cell growth measured after 48 hrs by SRB assay; assay type: functional
MDA-MB-231 = assay: Antiproliferative activity against human MDA-MB-231 cells assessed as inhibition of cell growth measured after 48 hrs by SRB assay; assay type: functional
BT-549 = assay: Antiproliferative activity against human BT-549 cells assessed as inhibition of cell growth measured after 48 hrs by SRB assay; assay type: functional
HCT-116 [6] = assay: Cytotoxicity against human HCT-116 cells assessed as reduction in cell viability after 48 hrs by MTT assay; assay type: functional, cell-based; settings: HCT-116, 48 h
WI-38 [7] = assay: Cytotoxicity against human WI-38 cells assessed as reduction in cell viability after 48 hrs by MTT assay; assay type: cell-based; settings: WI-38, 48 h
HCT-116 [8] = assay: Cell cycle arrest in human HCT-116 cells assessed as accumulation in G0/G1 phase at IC50 concentration incubated for 48 hrs by propidium iodide staining based flow cytometry analysis (reference value: 42.5 %); assay type: functional
WI-38 [9] = assay: Cell cycle arrest in human WI-38 cells assessed as accumulation in sub-G phase at IC50 concentration incubated for 48 hrs by propidium iodide staining based flow cytometry analysis (reference value: 1.35 %); settings: wi-38, 48 h
WI-38 [10] = assay: Cell cycle arrest in human WI-38 cells assessed as accumulation in G2/M phase phase at IC50 concentration incubated for 48 hrs by propidium iodide staining based flow cytometry analysis (reference value: 7.16 %); settings: wi-38, 48 h
[11] = target: Cyclin-dependent kinase 1/cyclin B1 (Homo sapiens, UniProt P06493); assay: Inhibition of CDK1/cyclinB (unknown origin); assay type: protein-complex assay
Cyclin-dependent kinase 1/cyclin B1, sequence (P06493 whole entry): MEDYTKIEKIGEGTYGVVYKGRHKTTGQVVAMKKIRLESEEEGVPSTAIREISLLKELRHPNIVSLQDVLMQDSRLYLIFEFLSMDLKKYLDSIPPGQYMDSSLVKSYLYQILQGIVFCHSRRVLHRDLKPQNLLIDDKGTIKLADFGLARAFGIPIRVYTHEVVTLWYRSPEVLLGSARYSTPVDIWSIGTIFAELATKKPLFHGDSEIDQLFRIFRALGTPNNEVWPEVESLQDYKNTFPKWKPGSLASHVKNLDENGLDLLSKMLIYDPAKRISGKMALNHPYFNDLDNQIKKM
Cyclin-dependent kinase 1/cyclin B1, sequence (P14635 whole entry, further chain): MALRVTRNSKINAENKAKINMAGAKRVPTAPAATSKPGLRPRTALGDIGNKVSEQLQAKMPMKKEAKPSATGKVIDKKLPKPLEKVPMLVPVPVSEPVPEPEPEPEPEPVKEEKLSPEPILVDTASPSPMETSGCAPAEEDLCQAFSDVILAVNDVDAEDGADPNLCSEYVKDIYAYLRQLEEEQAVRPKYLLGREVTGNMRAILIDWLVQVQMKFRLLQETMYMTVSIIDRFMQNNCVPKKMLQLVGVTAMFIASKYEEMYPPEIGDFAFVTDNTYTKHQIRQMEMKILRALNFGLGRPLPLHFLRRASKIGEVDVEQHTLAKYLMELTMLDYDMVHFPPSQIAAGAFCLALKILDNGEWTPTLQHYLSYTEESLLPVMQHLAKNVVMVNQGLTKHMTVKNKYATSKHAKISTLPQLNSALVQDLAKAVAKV

HCT-116 [12] = assay: Induction of apoptosis in human HCT116 cells assessed as up regulation of caspase-8 expression by RT-PCR analysis relative to untreated control; assay type: functional
[13] = read-out: LC50 (the source's name)

COc1ccc(-n2c(=S)sc3c(Cl)nc(C)nc32)c(OC)c1
inhibition at 10 µM (HOP-92): > 50% | inhibition at 10 µM (NCI-H460): > 50% | inhibition at 10 µM (HCC 2998): > 50% | inhibition at 10 µM (HCT-15): > 50% | inhibition at 10 µM (UACC-257): > 50% | inhibition at 10 µM (OVCAR-8 [1]): > 50% | inhibition at 10 µM (NCI/ADR-RES): > 50% | inhibition at 10 µM (SK-OV-3 [2]): > 50% | inhibition at 10 µM (SN12C): > 50% | inhibition at 10 µM (T47D): > 50% | GI50 (CCRF-CEM): 2.69 µM | TGI (CCRF-CEM): 7.41 µM | CC50 (CCRF-CEM; [13]): > 100 µM | GI50 (SR): 1.41 µM | TGI (SR): 5.5 µM | CC50 (SR; [13]): > 100 µM | GI50 (EKVX): 4.57 µM | TGI (EKVX): 17 µM | CC50 (EKVX; [13]): 43.6 µM | GI50 (HCT-116 [3]): 1.82 µM | TGI (HCT-116 [3]): 3.72 µM | CC50 (HCT-116 [3]; [13]): 7.59 µM | GI50 (HT-29): 2.4 µM | TGI (HT-29): 6.31 µM | CC50 (HT-29; [13]): 57.5 µM | GI50 (SW-620): 2.57 µM | TGI (SW-620): 5.5 µM | CC50 (SW-620; [13]): 28.8 µM | GI50 (SF-295): 7.08 µM | TGI (SF-295): 19.9 µM | CC50 (SF-295; [13]): 46.8 µM | GI50 (SF-268): 2.19 µM | TGI (SF-268): 5.25 µM | CC50 (SF-268; [13]): 17 µM | GI50 (UACC-62): 2.04 µM | TGI (UACC-62): 4.68 µM | CC50 (UACC-62; [13]): 12 µM | GI50 (IGROV-1): 1.95 µM | TGI (IGROV-1): 3.98 µM | CC50 (IGROV-1; [13]): 8.32 µM | GI50 (OVCAR-8 [4]): 2.69 µM | TGI (OVCAR-8 [4]): 7.41 µM | CC50 (OVCAR-8 [4]; [13]): 40.7 µM | GI50 (SK-OV-3 [5]): 14.1 µM | TGI (SK-OV-3 [5]): 27.5 µM | CC50 (SK-OV-3 [5]; [13]): 52.5 µM | GI50 (A498): 11.5 µM | TGI (A498): 24 µM | CC50 (A498; [13]): 49 µM | GI50 (ACHN): 2.09 µM | TGI (ACHN): 3.98 µM | CC50 (ACHN; [13]): 7.59 µM | GI50 (CAKI-1): 6.17 µM | TGI (CAKI-1): 19.5 µM | CC50 (CAKI-1; [13]): 45.7 µM | GI50 (MDA-MB-231): 3.16 µM | TGI (MDA-MB-231): 10.2 µM | CC50 (MDA-MB-231; [13]): 34.7 µM | GI50 (BT-549): 2 µM | TGI (BT-549): 4.27 µM | CC50 (BT-549; [13]): 9.12 µM | IC50 (HCT-116 [6]): 5.34 µM | IC50 (WI-38 [7]): 21.7 µM | Activity (HCT-116 [8]): 22.42% | Activity (WI-38 [9]): 6.1% | Activity (WI-38 [10]): 12.27% | IC50 [11]: 0.097 µM | fold change (FC) (HCT-116 [12]): 7.9
